In PubChem BioAssay AID2060603 (Molecular Pharmacology Branch, DTP, NCI, 2025):

Test system: 422866-222-R5-J1-PDC spheroid viability
Assay: Anticancer human tumor 422866-222-R5-J1-PDC patient-derived pancreatic adenocarcinoma cell line growth inhibition [CLK]
Conditions: spheroids with HUVEC and MSC; for IC50: curve of first compound; for viability, T/C: stronger effect = lower value
How it was run: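 Multi-cell-type spheroids combined patient-derived tumor cells with HUVEC endothelial cells and human mesenchymal stem cells. Paired agents were dosed in half-log steps down from about clinical Cmax, or from 10 microM where Cmax was unknown.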
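Note: spheroids exposed to agents for seven days before readout.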

Which IC50 (second compound 0.0316 µM) does the source give for `C=CC(=O)Nc1cc(Nc2nccc(-c3cn(C)c4ccccc34)n2)c(OC)cc1N(C)CCN(C)C` + CNC(=O)c1ccc(Nc2nc(OC3CCCC3)c3c(-c4ccc5nc(C)oc5c4)c[nH]c3n2)c(OC)c1 here?
The IC50 was greater than 300 nM.

What about the IC50 (second compound 0.1 µM) of the same compound?
Its IC50 is greater than 300 nM.

And the IC50 (second compound 0.316 µM)?
The IC50 was greater than 300 nM.

And the IC50 (second compound 1 µM)?
The IC50 was greater than 300 nM.

And the IC50 (second compound 3.16 µM)?
The IC50 was greater than 300 nM.

And the IC50 (second compound 10 µM)?
The IC50 was greater than 300 nM.

And the viability, T/C (second compound 0.0316 µM, first compound 0.000949 µM)?
The viability, T/C was 98.9%.

What about the viability, T/C (second compound 0.0316 µM, first compound 0.003 µM) of the same compound?
Its viability, T/C is 98.2%.

And the viability, T/C (second compound 0.0316 µM, first compound 0.00949 µM)?
Its viability, T/C is 85.4%.

And the viability, T/C (second compound 0.0316 µM, first compound 0.03 µM)?
The viability, T/C was 79.2%.

And the viability, T/C (second compound 0.0316 µM, first compound 0.0949 µM)?
The viability, T/C was 69.7%.

What about the viability, T/C (second compound 0.0316 µM, first compound 0.3 µM) of the same compound?
The viability, T/C was 77.1%.

What about the viability, T/C (second compound 0.1 µM, first compound 0.000949 µM) of the same compound?
The viability, T/C was 103%.

What about the viability, T/C (second compound 0.1 µM, first compound 0.003 µM) of the same compound?
The viability, T/C was 82.9%.

And the viability, T/C (second compound 0.1 µM, first compound 0.00949 µM)?
The viability, T/C was 74.5%.

And the viability, T/C (second compound 0.1 µM, first compound 0.03 µM)?
The viability, T/C was 71.8%.

And the viability, T/C (second compound 0.1 µM, first compound 0.0949 µM)?
The viability, T/C was 70.7%.

What about the viability, T/C (second compound 0.1 µM, first compound 0.3 µM) of the same compound?
Its viability, T/C is 57.1%.

And the viability, T/C (second compound 0.316 µM, first compound 0.000949 µM)?
Its viability, T/C is 66.3%.

What about the viability, T/C (second compound 0.316 µM, first compound 0.003 µM) of the same compound?
The viability, T/C was 73.5%.

What about the viability, T/C (second compound 0.316 µM, first compound 0.00949 µM) of the same compound?
The viability, T/C was 68%.

And the viability, T/C (second compound 0.316 µM, first compound 0.03 µM)?
Its viability, T/C is 58.7%.

What about the viability, T/C (second compound 0.316 µM, first compound 0.0949 µM) of the same compound?
The viability, T/C was 59.2%.

And the viability, T/C (second compound 0.316 µM, first compound 0.3 µM)?
Its viability, T/C is 60.7%.

What about the viability, T/C (second compound 1 µM, first compound 0.000949 µM) of the same compound?
The viability, T/C was 60.8%.

And the viability, T/C (second compound 1 µM, first compound 0.003 µM)?
The viability, T/C was 65.8%.

What about the viability, T/C (second compound 1 µM, first compound 0.00949 µM) of the same compound?
The viability, T/C was 60.9%.

What about the viability, T/C (second compound 1 µM, first compound 0.03 µM) of the same compound?
The viability, T/C was 65.5%.

And the viability, T/C (second compound 1 µM, first compound 0.0949 µM)?
The viability, T/C was 59.3%.

What about the viability, T/C (second compound 1 µM, first compound 0.3 µM) of the same compound?
Its viability, T/C is 54.8%.

What about the viability, T/C (second compound 3.16 µM, first compound 0.000949 µM) of the same compound?
Its viability, T/C is 52.8%.

What about the viability, T/C (second compound 3.16 µM, first compound 0.003 µM) of the same compound?
The viability, T/C was 61.6%.

And the viability, T/C (second compound 3.16 µM, first compound 0.00949 µM)?
Its viability, T/C is 60.4%.

And the viability, T/C (second compound 3.16 µM, first compound 0.03 µM)?
Its viability, T/C is 56.4%.

And the viability, T/C (second compound 3.16 µM, first compound 0.0949 µM)?
Its viability, T/C is 62.7%.

What about the viability, T/C (second compound 3.16 µM, first compound 0.3 µM) of the same compound?
The viability, T/C was 54.9%.

What about the viability, T/C (second compound 10 µM, first compound 0.000949 µM) of the same compound?
The viability, T/C was 69.6%.

What about the viability, T/C (second compound 10 µM, first compound 0.003 µM) of the same compound?
Its viability, T/C is 68.8%.

And the viability, T/C (second compound 10 µM, first compound 0.00949 µM)?
Its viability, T/C is 63.5%.

And the viability, T/C (second compound 10 µM, first compound 0.03 µM)?
The viability, T/C was 62.4%.

What about the viability, T/C (second compound 10 µM, first compound 0.0949 µM) of the same compound?
The viability, T/C was 55.6%.

What about the viability, T/C (second compound 10 µM, first compound 0.3 µM) of the same compound?
Its viability, T/C is 51.7%.
